Measurements taken from PubChem BioAssay AID248 (DTP/NCI, 2004).
Several values for one entry are separate records, joined by “and”; a condition that tells them apart may be missing. Equal values may be shown once. Inconclusive results and toxic doses are left out. Cut-off read from the data, not from the text of the source: active = T/C of 150% or more; inactive = T/C below 125%.

System: L1210 leukemia ip in BDF1 mice, survival T/C
Assay: NCI In Vivo Anticancer Drug Screen. Data for tumor model L1210 Leukemia (intraperitoneal) in B6D2F1 (BDF1) mice
Settings: endpoint: mean survival time, higher = longer survival
Procedure, shortened: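 Transplantable tumor model; survival measured in treated vs vehicle control mice. Value = treated/control.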

[1] = dose: 100.0 mg/kg/injection, schedule: Q01DX009 (ip), vehicle: Klucel (hydroxypropylcellulose) (HPC)
[2] = dose: 200.0 mg/kg/injection, schedule: Q01DX009 (ip), vehicle: Klucel (hydroxypropylcellulose) (HPC)
[3] = dose: 100.0 mg/kg/injection, schedule: Q01DX009 (ip), vehicle: saline with Tween-80
[4] = dose: 200.0 mg/kg/injection, schedule: Q01DX009 (ip), vehicle: saline with Tween-80
[5] = dose: 100.0 mg/kg/injection, schedule: Q04DX003 (ip), vehicle: saline with Tween-80
[6] = dose: 200.0 mg/kg/injection, schedule: Q04DX003 (ip), vehicle: saline with Tween-80
[7] = dose: 400.0 mg/kg/injection, schedule: Q04DX003 (ip), vehicle: saline with Tween-80
[8] = dose: 100.0 mg/kg/injection, schedule: Q04DX003 (ip), vehicle: Klucel (hydroxypropylcellulose) (HPC)
[9] = dose: 200.0 mg/kg/injection, schedule: Q04DX003 (ip), vehicle: Klucel (hydroxypropylcellulose) (HPC)
[10] = dose: 400.0 mg/kg/injection, schedule: Q01DX009 (ip), vehicle: Klucel (hydroxypropylcellulose) (HPC)
[11] = dose: 400.0 mg/kg/injection, schedule: Q04DX003 (ip), vehicle: Klucel (hydroxypropylcellulose) (HPC)
[12] = dose: 100.0 mg/kg/injection, schedule: Q01DX001 (ip), vehicle: saline
[13] = dose: 200.0 mg/kg/injection, schedule: Q01DX001 (ip), vehicle: saline
[14] = dose: 400.0 mg/kg/injection, schedule: Q01DX001 (ip), vehicle: saline
[15] = dose: 25.0 mg/kg/injection, schedule: Q04DX002 (ip), vehicle: saline
[16] = dose: 50.0 mg/kg/injection, schedule: Q04DX002 (ip), vehicle: saline
[17] = dose: 100.0 mg/kg/injection, schedule: Q04DX002 (ip), vehicle: Klucel (hydroxypropylcellulose) (HPC)
[18] = dose: 200.0 mg/kg/injection, schedule: Q04DX002 (ip), vehicle: Klucel (hydroxypropylcellulose) (HPC)
[19] = dose: 400.0 mg/kg/injection, schedule: Q04DX002 (ip), vehicle: Klucel (hydroxypropylcellulose) (HPC)
[20] = dose: 400.0 mg/kg/injection, schedule: Q01DX009 (ip), vehicle: saline with Tween-80

Measured: T/C

O=P(C1CCCCC1)(C1CCCCC1)C1CCCCC1
inactive: [1] 89 % of control | [2] 97 % of control

Oc1ccc(C(O)(c2ccccc2)c2ccc(O)c3ccccc23)c2ccccc12
inactive: [3] 96 % of control | [4] 91 % of control

CCOC(=O)N(CC(C)C(=O)OC)C(C)C (stereo unspecified)
inactive: dose: 100.0 mg/kg/injection, schedule: Q01DX Z (ip), vehicle: saline 100 % of control | dose: 200.0 mg/kg/injection, schedule: Q01DX Z (ip), vehicle: saline 97 % of control

O=C(/C(=N/N=C\c1ccc([N+](=O)[O-])cc1)c1ccccc1)c1ccccc1
inactive: [5] 96 % of control | [6] 96 % of control | [7] 94 % of control

COc1cccc(C23CCCCC2=NCC3)c1 (stereo unspecified)
inactive: dose: 25.0 mg/kg/injection, schedule: Q04DX003 (ip), vehicle: saline 100 % of control | dose: 50.0 mg/kg/injection, schedule: Q04DX003 (ip), vehicle: saline 107 % of control | dose: 100.0 mg/kg/injection, schedule: Q04DX003 (ip), vehicle: saline 89 % of control

CC(=O)c1cccc(NC(=O)N2CCN(c3ccccc3)CC2)c1
inactive: [3] 111 % of control | [4] 100 % of control

O=C(O)/C(=C\CCCC/C=C(\CCO)C(=O)O)CCO
inactive: [1] 102 % of control | [8] 94 % of control | [2] 99 % of control | [9] 102 % of control | [10] 102 % of control | [11] 96 % of control

CC(=O)Oc1cc(C)c2c(c1C)C1OC(=O)C(C)C1CC2 (stereo unspecified)
inactive: dose: 100.0 mg/kg/injection, schedule: Q01DX001 (ip), vehicle: other 98 % of control | dose: 200.0 mg/kg/injection, schedule: Q01DX001 (ip), vehicle: other 98 % of control | dose: 400.0 mg/kg/injection, schedule: Q01DX001 (ip), vehicle: other 97 % of control

COc1ccc(C=NCCN=Cc2ccc(OC)cc2OC)c(OC)c1
inactive: dose: 6.25 mg/kg/injection, schedule: Q01DX009 (ip), vehicle: saline with Tween-80 97 % of control | dose: 6.25 mg/kg/injection, schedule: Q04DX003 (ip), vehicle: saline with Tween-80 98 % of control | dose: 12.5 mg/kg/injection, schedule: Q01DX009 (ip), vehicle: saline with Tween-80 87 % of control | dose: 12.5 mg/kg/injection, schedule: Q04DX003 (ip), vehicle: saline with Tween-80 91 % of control | dose: 25.0 mg/kg/injection, schedule: Q01DX009 (ip), vehicle: saline with Tween-80 87 % of control | dose: 25.0 mg/kg/injection, schedule: Q04DX003 (ip), vehicle: saline with Tween-80 95 % of control

CCCCCCCCCCCC(=O)N(C)C
inactive: [8] 109 % of control | [9] 111 % of control | [11] 109 % of control

CC(=O)OCC1OC(n2cnc3c(Cl)nc(Cl)nc32)CC1OC(C)=O (stereo unspecified)
inactive: [12] 101 % of control | [13] 101 % of control | [14] 101 % of control

Cc1cc(N=CN(C)C)c2ccccc2n1
inactive: dose: 25.0 mg/kg/injection, schedule: Q01DX001 (ip), vehicle: saline with Tween-80 102 % of control | dose: 50.0 mg/kg/injection, schedule: Q01DX001 (ip), vehicle: saline with Tween-80 101 % of control | dose: 50.0 mg/kg/injection, schedule: Q04DX003 (ip), vehicle: saline with Tween-80 108 % of control | [5] 98 % of control

CC(C)C(N)C(=O)OC(=O)C(N)CCCCN (stereo unspecified)
inactive: dose: 12.5 mg/kg/injection, schedule: Q04DX002 (ip), vehicle: saline 107 % of control | [15] 104 % of control | [16] 101 % of control | [12] 108 % of control | [13] 101 % of control | [14] 98 % of control

O=S(=O)(O)OCc1cc(O)c(OS(=O)(=O)O)c(Br)c1Br
inactive: dose: 100.0 mg/kg/injection, schedule: Q01DX001 (ip), vehicle: saline with Tween-80 97 % of control | dose: 200.0 mg/kg/injection, schedule: Q01DX001 (ip), vehicle: saline with Tween-80 102 % of control | dose: 400.0 mg/kg/injection, schedule: Q01DX001 (ip), vehicle: saline with Tween-80 94 % of control

CCOc1cccnc1/C=N/NC(N)=S
inactive: dose: 50.0 mg/kg/injection, schedule: Q01DX001 (ip), vehicle: saline 106 % of control | [12] 102 % of control | [13] 100 % of control | [14] 108 % of control

Cc1ccc(SS(=O)(=O)c2ccc(C)cc2)cc1
inactive: dose: 100.0 mg/kg/injection, schedule: Q01DX001 (ip), vehicle: Klucel (hydroxypropylcellulose) (HPC) 86 % of control | dose: 100.0 mg/kg/injection, schedule: Q01DX009 (ip), vehicle: saline sonified 116 % of control | [8] 114 % of control | dose: 200.0 mg/kg/injection, schedule: Q01DX001 (ip), vehicle: Klucel (hydroxypropylcellulose) (HPC) 86 % of control | dose: 200.0 mg/kg/injection, schedule: Q01DX009 (ip), vehicle: saline sonified 102 % of control | [9] 101 % of control | dose: 400.0 mg/kg/injection, schedule: Q01DX009 (ip), vehicle: saline sonified 107 % of control | [11] 106 % of control

O=C(O)C1C(=O)OC2CCCCC21 (stereo unspecified)
inactive: dose: 50.0 mg/kg/injection, schedule: Q01DX009 (ip), vehicle: saline with Tween-80 88 % of control | [3] 88 % of control | [4] 95 % of control

C[N+](C)(C)CCCCCC[Si](C)(C)C
inactive: dose: 5.0 mg/kg/injection, schedule: Q01DX001 (ip), vehicle: saline 110 % of control | dose: 10.0 mg/kg/injection, schedule: Q01DX001 (ip), vehicle: saline 108 % of control | dose: 20.0 mg/kg/injection, schedule: Q01DX001 (ip), vehicle: saline 104 % of control | dose: 40.0 mg/kg/injection, schedule: Q01DX001 (ip), vehicle: saline 108 % of control

Cc1cccc(C)c1NC(=O)Nc1ncccn1
inactive: dose: 25.0 mg/kg/injection, schedule: Q04DX002 (ip), vehicle: Klucel (hydroxypropylcellulose) (HPC) 99 % of control | dose: 50.0 mg/kg/injection, schedule: Q04DX002 (ip), vehicle: Klucel (hydroxypropylcellulose) (HPC) 96 % of control | [1] 103 % of control | [17] 105 % of control | [2] 104 % of control | [18] 97 % of control | [10] 101 % of control | [19] 93 % of control

C=CCOc1ccc2c(cc1=O)C(NC(C)=O)CCc1cc(OC)c(OC)c(OC)c1-2 (stereo unspecified)
inactive: dose: 100.0 mg/kg/injection, schedule: Q01DX001 (ip), vehicle: carboxymethylcellulose (CMC) 114 % of control | dose: 200.0 mg/kg/injection, schedule: Q01DX001 (ip), vehicle: carboxymethylcellulose (CMC) 120 % of control | dose: 400.0 mg/kg/injection, schedule: Q01DX001 (ip), vehicle: carboxymethylcellulose (CMC) 117 % of control

N#Cc1cc(C#N)c(NN)nc1N
inactive: [5] 86 % of control | [6] 94 % of control | [7] 92 % of control

N#Cc1ccc(C#N)cc1
inactive: [3] 97 % of control | [5] 92 % of control and 95 % of control | [4] 104 % of control | [6] 106 % of control and 86 % of control | [20] 115 % of control | [7] 100 % of control and 104 % of control

O=C(O)Cc1ccc(Cl)c2ccccc12
inactive: [17] 101 % of control | [18] 104 % of control | [19] 107 % of control

N#CCCO
inactive: [15] 98 % of control | [16] 101 % of control | dose: 100.0 mg/kg/injection, schedule: Q04DX002 (ip), vehicle: saline 110 % of control and 121 % of control | dose: 200.0 mg/kg/injection, schedule: Q04DX002 (ip), vehicle: saline 96 % of control | dose: 400.0 mg/kg/injection, schedule: Q04DX002 (ip), vehicle: saline 108 % of control

Nc1ccc2nc3c4ccccc4c(O)n3nc2c1
inactive: dose: 100.0 mg/kg/injection, schedule: Q04DX002 (ip), vehicle: saline with Tween-80 106 % of control | dose: 200.0 mg/kg/injection, schedule: Q04DX002 (ip), vehicle: saline with Tween-80 102 % of control | dose: 400.0 mg/kg/injection, schedule: Q04DX002 (ip), vehicle: saline with Tween-80 102 % of control

NCC(=O)Nc1ccc(Cl)cc1C(=O)c1ccc[nH]1
inactive: [3] 93 % of control | [4] 87 % of control | [20] 90 % of control
